Experimental data: PubChem BioAssay (NCI)
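Tested at 5 concentrations; 48 h exposure; 96-well plates; endpoints linearly interpolated, else capped at highest concentration. TGI: total growth inhibition.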

Key:
Assay in all cases: DTP human tumour cell line panel, 48 h
SF-268 CNS = test system: SF-268 CNS
UO-31 renal = test system: UO-31 renal
BT-549 breast = test system: BT-549 breast
RXF 393 renal = test system: RXF 393 renal
LOX IMVI melanoma = test system: LOX IMVI melanoma
HL-60(TB) leukemia = test system: HL-60(TB) leukemia
NCI-H226 lung = test system: NCI-H226 lung
MALME-3M melanoma = test system: MALME-3M melanoma
HOP-62 NSCLC = test system: HOP-62 NSCLC
M14 melanoma = test system: M14 melanoma
SK-MEL-5 melanoma = test system: SK-MEL-5 melanoma
HOP-92 NSCLC = test system: HOP-92 NSCLC
786-0 renal = test system: 786-0 renal
DU-145 prostate = test system: DU-145 prostate
PC-3 prostate = test system: PC-3 prostate
HCT-116 colon = test system: HCT-116 colon
IGROV1 ovarian = test system: IGROV1 ovarian
KM12 colon = test system: KM12 colon
SW-620 colon = test system: SW-620 colon
CAKI-1 renal = test system: CAKI-1 renal

SMILES | TGI (SF-268 CNS) | TGI (UO-31 renal) | TGI (BT-549 breast) | TGI (RXF 393 renal) | TGI (LOX IMVI melanoma) | TGI (HL-60(TB) leukemia) | TGI (NCI-H226 lung) | TGI (MALME-3M melanoma) | TGI (HOP-62 NSCLC) | TGI (M14 melanoma) | TGI (SK-MEL-5 melanoma) | TGI (HOP-92 NSCLC) | TGI (786-0 renal) | TGI (DU-145 prostate) | TGI (PC-3 prostate) | TGI (HCT-116 colon) | TGI (IGROV1 ovarian) | TGI (KM12 colon) | TGI (SW-620 colon) | TGI (CAKI-1 renal)
CN(C)C=NCCN1CCOCC1 | > 100 µM | > 100 µM | > 100 µM | > 100 µM | > 100 µM | > 100 µM | > 100 µM | > 100 µM | > 100 µM | > 100 µM | > 100 µM | > 100 µM | > 100 µM | > 100 µM | > 100 µM | > 100 µM | > 100 µM |  |  | 
O=C(Cc1nc2ncccc2[nH]c1=O)c1c[nH]c2ccccc12 | 30.5 µM | 32.5 µM | 62 µM | 39.1 µM | 44 µM | > 100 µM |  | 32.7 µM | 36.9 µM | 43.1 µM | 73 µM | 38.4 µM | 40.5 µM | 32.7 µM | 29.9 µM | 49 µM | 39 µM | 34.5 µM | 40.5 µM | 31.9 µM
COC(=O)[C@@H](Cc1ccccc1)N1O[C@]12CCCC[C@@H]2NC(=O)OC(C)(C)C (stereo partly drawn) | 34.9 µM | 27.5 µM | 34.8 µM | 56.1 µM |  |  | > 100 µM | 56 µM | 38.2 µM | 50.9 µM | 35.8 µM | 55.5 µM | 51.3 µM | 79 µM | 84.2 µM | > 100 µM | 27.8 µM | > 100 µM | 29.3 µM | 90.4 µM
CCOC(=O)c1nc2ccccc2nc1Oc1cc(OC)c(OC)c(OC)c1 | > 100 µM | > 100 µM | > 100 µM |  | > 100 µM | > 100 µM |  | > 100 µM | > 100 µM | > 100 µM | > 100 µM | > 100 µM | > 100 µM | > 100 µM | > 100 µM | > 100 µM | > 100 µM | > 100 µM | > 100 µM | > 100 µM
O=C(CCCl)NNC1=NCCCCN1 | > 100 µM | > 100 µM | > 100 µM | > 100 µM | > 100 µM | > 100 µM | > 100 µM | > 100 µM | > 100 µM | > 100 µM | > 100 µM | > 100 µM | > 100 µM | > 100 µM | > 100 µM | > 100 µM | > 100 µM | > 100 µM | > 100 µM | 
CC(C)(C)OC/C=C1\C(=O)O[C@H]2C[C@@H](O[Si](C)(C)C(C)(C)C)C[C@@H]12 | > 100 µM | > 100 µM | > 100 µM | > 100 µM | > 100 µM |  | > 100 µM | > 100 µM | > 100 µM | > 100 µM | > 100 µM | > 100 µM | > 100 µM | > 100 µM | > 100 µM | > 100 µM | > 100 µM | > 100 µM | > 100 µM | > 100 µM
NC(=O)/C=c1/c2ccccc2n2nc3ccccc3c12 | 47.5 µM | 77 µM | 95.9 µM | 46.5 µM | 19.7 µM | 7.58 µM |  | 53.4 µM | 77.2 µM | 71.7 µM | > 100 µM |  | 77.4 µM | > 100 µM | > 100 µM | 21 µM | 35 µM | 56.5 µM | 44.5 µM | 82.5 µM
